How the values were obtained:
[1] = target: Activin receptor type-1B (Homo sapiens) (UniProt P36896); conditions: Compound concentration 1000.0 nM
[2] = target: Atypical kinase COQ8B, mitochondrial (Homo sapiens) (UniProt Q96D53); conditions: Compound concentration 1000.0 nM
[3] = tested on: ALK tyrosine kinase receptor (Homo sapiens), Q9UM73 [C1156Y]; conditions: Compound concentration 1000.0 nM
[4] = target: Ankyrin repeat and protein kinase domain-containing protein 1 (Homo sapiens) (UniProt Q8NFD2); conditions: Compound concentration 1000.0 nM
Ankyrin repeat and protein kinase domain-containing protein 1 (Homo sapiens), sequence (Q8NFD2 whole entry, the tested form may be a part): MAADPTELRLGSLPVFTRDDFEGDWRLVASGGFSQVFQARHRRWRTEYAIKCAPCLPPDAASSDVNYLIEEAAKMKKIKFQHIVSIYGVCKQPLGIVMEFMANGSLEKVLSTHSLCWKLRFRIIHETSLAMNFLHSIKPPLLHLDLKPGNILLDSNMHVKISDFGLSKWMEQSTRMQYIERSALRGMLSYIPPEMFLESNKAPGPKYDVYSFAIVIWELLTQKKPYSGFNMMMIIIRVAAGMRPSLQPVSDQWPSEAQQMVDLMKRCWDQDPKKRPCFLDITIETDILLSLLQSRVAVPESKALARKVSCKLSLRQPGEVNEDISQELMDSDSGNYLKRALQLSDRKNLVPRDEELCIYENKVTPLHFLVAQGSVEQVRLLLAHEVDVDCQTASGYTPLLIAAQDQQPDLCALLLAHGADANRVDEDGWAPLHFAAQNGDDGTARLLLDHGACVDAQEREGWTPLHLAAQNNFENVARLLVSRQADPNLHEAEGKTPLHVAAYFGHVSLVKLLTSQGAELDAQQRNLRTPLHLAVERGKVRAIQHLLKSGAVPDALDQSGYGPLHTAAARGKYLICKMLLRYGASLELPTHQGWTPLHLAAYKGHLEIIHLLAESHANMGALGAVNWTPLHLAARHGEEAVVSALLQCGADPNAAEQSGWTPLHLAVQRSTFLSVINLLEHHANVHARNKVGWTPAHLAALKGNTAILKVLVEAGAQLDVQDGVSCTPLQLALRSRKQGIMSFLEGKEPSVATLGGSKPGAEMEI

[5] = target: NUAK family SNF1-like kinase 1 (Homo sapiens) (UniProt O60285); conditions: Compound concentration 1000.0 nM
[6] = target: Bone morphogenetic protein receptor type-2 (Homo sapiens) (UniProt Q13873); conditions: Compound concentration 1000.0 nM
[7] = target: Serine/threonine-protein kinase BRSK1 (Homo sapiens) (UniProt Q8TDC3); conditions: Compound concentration 1000.0 nM
[8] = target: Calcium/calmodulin-dependent protein kinase type 1G (Homo sapiens) (UniProt Q96NX5); conditions: Compound concentration 1000.0 nM
[9] = target: Cyclin-dependent kinase 8 (Homo sapiens) (UniProt P49336); conditions: Compound concentration 1000.0 nM
[10] = tested on: Epidermal growth factor receptor (Homo sapiens), P00533 [G719S]; conditions: Compound concentration 1000.0 nM
[11] = tested on: Epidermal growth factor receptor (Homo sapiens), P00533 [UNDEFINED MUTATION]; conditions: Compound concentration 1000.0 nM
[12] = tested on: Epidermal growth factor receptor (Homo sapiens), P00533 [T790M]; conditions: Compound concentration 1000.0 nM
[13] = target: Mitogen-activated protein kinase 6 (Homo sapiens) (UniProt Q16659); conditions: Compound concentration 1000.0 nM
[14] = target: Focal adhesion kinase 1 (Homo sapiens) (UniProt Q05397); conditions: Compound concentration 1000.0 nM
[15] = target: Tyrosine-protein kinase FRK (Homo sapiens) (UniProt P42685); conditions: Compound concentration 1000.0 nM
[16] = target: Tyrosine-protein kinase Fyn (Homo sapiens) (UniProt P06241); conditions: Compound concentration 1000.0 nM
Tyrosine-protein kinase Fyn (Homo sapiens), sequence (P06241 2-537 limits assumed): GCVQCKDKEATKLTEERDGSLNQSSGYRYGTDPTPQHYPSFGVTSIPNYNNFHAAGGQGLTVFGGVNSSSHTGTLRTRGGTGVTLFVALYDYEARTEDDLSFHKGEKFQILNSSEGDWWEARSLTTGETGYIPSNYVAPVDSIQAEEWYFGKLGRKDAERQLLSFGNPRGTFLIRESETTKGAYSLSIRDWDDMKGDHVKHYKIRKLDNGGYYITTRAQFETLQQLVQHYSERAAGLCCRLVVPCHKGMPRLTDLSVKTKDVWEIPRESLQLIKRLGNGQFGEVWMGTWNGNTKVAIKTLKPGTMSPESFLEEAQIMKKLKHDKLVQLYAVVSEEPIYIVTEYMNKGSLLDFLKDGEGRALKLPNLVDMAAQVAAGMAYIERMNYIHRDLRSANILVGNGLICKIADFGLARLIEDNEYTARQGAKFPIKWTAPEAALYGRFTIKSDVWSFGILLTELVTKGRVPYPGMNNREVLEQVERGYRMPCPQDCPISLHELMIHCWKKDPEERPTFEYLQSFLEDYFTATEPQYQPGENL

[17] = target: Rhodopsin kinase GRK1 (Homo sapiens) (UniProt Q15835); conditions: Compound concentration 1000.0 nM
[18] = target: Beta-adrenergic receptor kinase 1 (Homo sapiens) (UniProt P25098); conditions: Compound concentration 1000.0 nM
[19] = target: Mitogen-activated protein kinase 9 (Homo sapiens) (UniProt P45984); conditions: Compound concentration 1000.0 nM
[20] = tested on: Mast/stem cell growth factor receptor Kit (Homo sapiens), P10721 [D816H]; conditions: Compound concentration 1000.0 nM
[21] = tested on: Mast/stem cell growth factor receptor Kit (Homo sapiens), P10721 [V559D,T670I]; conditions: Compound concentration 1000.0 nM
[22] = target: Microtubule-associated serine/threonine-protein kinase 1 (Homo sapiens) (UniProt Q9Y2H9); conditions: Compound concentration 1000.0 nM
[23] = tested on: Hepatocyte growth factor receptor (Homo sapiens), P08581 [Y1235D]; conditions: Compound concentration 1000.0 nM
[24] = target: MAP kinase-interacting serine/threonine-protein kinase 1 (Homo sapiens) (UniProt Q9BUB5); conditions: Compound concentration 1000.0 nM
MAP kinase-interacting serine/threonine-protein kinase 1 (Homo sapiens), sequence (Q9BUB5 whole entry, looked up): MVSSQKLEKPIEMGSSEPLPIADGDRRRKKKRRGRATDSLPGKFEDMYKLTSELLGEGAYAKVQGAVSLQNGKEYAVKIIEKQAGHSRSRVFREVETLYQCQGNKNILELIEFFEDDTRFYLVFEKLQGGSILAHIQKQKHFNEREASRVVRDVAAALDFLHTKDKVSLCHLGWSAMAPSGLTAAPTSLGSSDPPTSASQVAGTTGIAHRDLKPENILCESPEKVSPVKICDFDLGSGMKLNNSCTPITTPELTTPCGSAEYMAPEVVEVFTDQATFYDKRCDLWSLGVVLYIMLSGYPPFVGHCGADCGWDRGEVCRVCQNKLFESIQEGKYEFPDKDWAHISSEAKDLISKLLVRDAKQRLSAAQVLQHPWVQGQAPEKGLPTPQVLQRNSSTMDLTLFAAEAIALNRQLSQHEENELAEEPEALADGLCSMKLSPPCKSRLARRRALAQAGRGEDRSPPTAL

[25] = target: Serine/threonine-protein kinase mTOR (Homo sapiens) (UniProt P42345); conditions: Compound concentration 1000.0 nM
[26] = target: Myosin light chain kinase, smooth muscle (Homo sapiens) (UniProt Q15746); conditions: Compound concentration 1000.0 nM
[27] = target: Serine/threonine-protein kinase OSR1 (Homo sapiens) (UniProt O95747); conditions: Compound concentration 1000.0 nM
[28] = target: Mitogen-activated protein kinase 11 (Homo sapiens) (UniProt Q15759); conditions: Compound concentration 1000.0 nM
[29] = target: Mitogen-activated protein kinase 12 (Homo sapiens) (UniProt P53778); conditions: Compound concentration 1000.0 nM
Mitogen-activated protein kinase 12 (Homo sapiens), sequence (P53778 whole entry): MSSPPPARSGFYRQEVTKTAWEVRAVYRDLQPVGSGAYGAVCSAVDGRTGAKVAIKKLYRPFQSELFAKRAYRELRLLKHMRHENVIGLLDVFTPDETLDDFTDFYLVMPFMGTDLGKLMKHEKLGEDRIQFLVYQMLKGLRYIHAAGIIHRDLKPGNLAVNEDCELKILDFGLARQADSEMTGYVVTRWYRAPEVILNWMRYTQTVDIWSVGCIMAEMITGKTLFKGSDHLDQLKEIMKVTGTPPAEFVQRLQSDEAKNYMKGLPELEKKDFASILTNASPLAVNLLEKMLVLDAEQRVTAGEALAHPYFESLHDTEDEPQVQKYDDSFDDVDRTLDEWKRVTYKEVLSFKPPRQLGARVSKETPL

[30] = target: Cyclin-dependent kinase 17 (Homo sapiens) (UniProt Q00537); conditions: Compound concentration 1000.0 nM
Cyclin-dependent kinase 17 (Homo sapiens), sequence (Q00537 whole entry, looked up, canonical isoform): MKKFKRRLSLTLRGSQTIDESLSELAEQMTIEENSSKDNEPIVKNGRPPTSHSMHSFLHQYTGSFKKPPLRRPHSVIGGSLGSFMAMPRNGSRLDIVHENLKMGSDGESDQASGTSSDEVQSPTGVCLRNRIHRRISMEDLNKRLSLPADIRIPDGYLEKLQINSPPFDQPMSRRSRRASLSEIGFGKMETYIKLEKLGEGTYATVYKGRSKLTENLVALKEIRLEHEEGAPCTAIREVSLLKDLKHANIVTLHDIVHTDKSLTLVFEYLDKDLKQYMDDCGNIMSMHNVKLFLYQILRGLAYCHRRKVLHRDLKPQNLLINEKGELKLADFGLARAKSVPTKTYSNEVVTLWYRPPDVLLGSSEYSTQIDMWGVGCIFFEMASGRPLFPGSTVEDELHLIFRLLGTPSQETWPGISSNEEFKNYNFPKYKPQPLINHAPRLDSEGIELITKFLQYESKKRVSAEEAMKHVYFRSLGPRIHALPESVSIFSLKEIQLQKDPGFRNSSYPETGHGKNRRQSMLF

[31] = target: Phosphorylase b kinase gamma catalytic chain, skeletal muscle/heart isoform (Homo sapiens) (UniProt Q16816); conditions: Compound concentration 1000.0 nM
Phosphorylase b kinase gamma catalytic chain, skeletal muscle/heart isoform (Homo sapiens), sequence (Q16816 whole entry, looked up, canonical isoform): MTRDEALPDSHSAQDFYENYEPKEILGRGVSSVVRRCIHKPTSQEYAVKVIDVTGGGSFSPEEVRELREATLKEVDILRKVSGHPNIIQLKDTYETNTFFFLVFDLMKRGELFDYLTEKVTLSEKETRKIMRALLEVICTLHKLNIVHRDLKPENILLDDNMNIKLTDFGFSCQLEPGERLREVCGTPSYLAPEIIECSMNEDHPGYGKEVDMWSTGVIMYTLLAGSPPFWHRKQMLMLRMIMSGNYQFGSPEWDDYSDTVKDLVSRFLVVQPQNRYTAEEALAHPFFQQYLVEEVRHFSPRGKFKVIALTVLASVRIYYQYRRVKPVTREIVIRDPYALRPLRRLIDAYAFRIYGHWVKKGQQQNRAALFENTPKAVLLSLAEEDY

[32] = target: Phosphatidylinositol 4,5-bisphosphate 3-kinase catalytic subunit alpha isoform (Homo sapiens) (UniProt P42336); conditions: Compound concentration 1000.0 nM
Phosphatidylinositol 4,5-bisphosphate 3-kinase catalytic subunit alpha isoform (Homo sapiens), sequence (P42336 whole entry, canonical isoform): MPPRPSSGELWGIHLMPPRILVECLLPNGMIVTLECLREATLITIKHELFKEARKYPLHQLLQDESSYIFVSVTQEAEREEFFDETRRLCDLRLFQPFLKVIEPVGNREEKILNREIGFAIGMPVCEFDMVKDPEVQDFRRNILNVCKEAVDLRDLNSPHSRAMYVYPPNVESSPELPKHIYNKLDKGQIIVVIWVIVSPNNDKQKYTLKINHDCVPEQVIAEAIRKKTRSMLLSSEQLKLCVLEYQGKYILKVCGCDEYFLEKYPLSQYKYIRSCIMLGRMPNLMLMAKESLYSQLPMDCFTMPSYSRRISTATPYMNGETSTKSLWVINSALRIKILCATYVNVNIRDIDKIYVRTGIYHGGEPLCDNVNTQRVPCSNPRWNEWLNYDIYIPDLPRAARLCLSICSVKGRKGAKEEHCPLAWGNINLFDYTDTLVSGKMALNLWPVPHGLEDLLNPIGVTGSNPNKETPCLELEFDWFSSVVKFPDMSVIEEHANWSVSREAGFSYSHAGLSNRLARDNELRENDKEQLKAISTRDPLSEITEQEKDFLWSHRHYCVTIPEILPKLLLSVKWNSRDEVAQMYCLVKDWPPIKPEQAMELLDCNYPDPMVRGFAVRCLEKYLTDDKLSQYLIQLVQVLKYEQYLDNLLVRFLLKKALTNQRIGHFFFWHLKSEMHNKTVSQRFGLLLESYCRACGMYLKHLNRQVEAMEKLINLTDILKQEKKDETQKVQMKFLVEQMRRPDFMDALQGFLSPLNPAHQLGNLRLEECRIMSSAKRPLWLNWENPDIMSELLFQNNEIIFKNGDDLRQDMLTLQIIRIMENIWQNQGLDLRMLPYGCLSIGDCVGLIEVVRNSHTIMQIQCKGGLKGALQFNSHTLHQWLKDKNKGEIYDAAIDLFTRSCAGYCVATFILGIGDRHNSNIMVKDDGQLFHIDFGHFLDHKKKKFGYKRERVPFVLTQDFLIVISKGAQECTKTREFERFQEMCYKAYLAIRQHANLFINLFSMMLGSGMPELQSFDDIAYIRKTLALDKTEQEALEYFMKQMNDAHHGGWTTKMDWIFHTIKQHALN

[33] = target: cAMP-dependent protein kinase catalytic subunit alpha (Homo sapiens) (UniProt P17612); conditions: Compound concentration 1000.0 nM
[34] = target: Serine/threonine-protein kinase PLK2 (Homo sapiens) (UniProt Q9NYY3); conditions: Compound concentration 1000.0 nM
[35] = target: Protein kinase C epsilon type (Homo sapiens) (UniProt Q02156); conditions: Compound concentration 1000.0 nM
[36] = target: Receptor-interacting serine/threonine-protein kinase 1 (Homo sapiens) (UniProt Q13546); conditions: Compound concentration 1000.0 nM
[37] = target: SRSF protein kinase 1 (Homo sapiens) (UniProt Q96SB4); conditions: Compound concentration 1000.0 nM
[38] = target: Serine/threonine-protein kinase 16 (Homo sapiens) (UniProt O75716); conditions: Compound concentration 1000.0 nM
[39] = target: Serine/threonine-protein kinase 35 (Homo sapiens) (UniProt Q8TDR2); conditions: Compound concentration 1000.0 nM
[40] = target: STE20/SPS1-related proline-alanine-rich protein kinase (Homo sapiens) (UniProt Q9UEW8); conditions: Compound concentration 1000.0 nM
[41] = target: Tyrosine-protein kinase receptor Tie-1 (Homo sapiens) (UniProt P35590); conditions: Compound concentration 1000.0 nM
[42] = target: Testis-specific serine/threonine-protein kinase 1 (Homo sapiens) (UniProt Q9BXA7); conditions: Compound concentration 1000.0 nM
[43] = target: D(3) dopamine receptor (Homo sapiens) (UniProt P35462); conditions: Compound concentration 10.0 uM
D(3) dopamine receptor (Homo sapiens), sequence (P35462 whole entry): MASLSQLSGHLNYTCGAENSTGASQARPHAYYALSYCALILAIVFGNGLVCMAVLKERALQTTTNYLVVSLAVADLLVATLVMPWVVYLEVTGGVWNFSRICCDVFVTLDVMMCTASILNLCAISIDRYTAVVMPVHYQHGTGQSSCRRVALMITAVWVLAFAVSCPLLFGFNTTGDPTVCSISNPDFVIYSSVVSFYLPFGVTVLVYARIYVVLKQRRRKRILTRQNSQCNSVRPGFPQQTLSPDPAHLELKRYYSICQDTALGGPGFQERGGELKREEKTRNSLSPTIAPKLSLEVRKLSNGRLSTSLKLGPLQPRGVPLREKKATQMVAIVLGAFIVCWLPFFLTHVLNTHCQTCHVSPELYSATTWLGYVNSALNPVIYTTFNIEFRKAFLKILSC

[44] = target: Histamine H3 receptor (Homo sapiens) (UniProt Q9Y5N1); conditions: Compound concentration 10.0 uM
[45] = target: Histamine H4 receptor (Homo sapiens) (UniProt Q9H3N8); conditions: Compound concentration 10.0 uM

Activin receptor type-1B (Homo sapiens), sequence (P36896 whole entry): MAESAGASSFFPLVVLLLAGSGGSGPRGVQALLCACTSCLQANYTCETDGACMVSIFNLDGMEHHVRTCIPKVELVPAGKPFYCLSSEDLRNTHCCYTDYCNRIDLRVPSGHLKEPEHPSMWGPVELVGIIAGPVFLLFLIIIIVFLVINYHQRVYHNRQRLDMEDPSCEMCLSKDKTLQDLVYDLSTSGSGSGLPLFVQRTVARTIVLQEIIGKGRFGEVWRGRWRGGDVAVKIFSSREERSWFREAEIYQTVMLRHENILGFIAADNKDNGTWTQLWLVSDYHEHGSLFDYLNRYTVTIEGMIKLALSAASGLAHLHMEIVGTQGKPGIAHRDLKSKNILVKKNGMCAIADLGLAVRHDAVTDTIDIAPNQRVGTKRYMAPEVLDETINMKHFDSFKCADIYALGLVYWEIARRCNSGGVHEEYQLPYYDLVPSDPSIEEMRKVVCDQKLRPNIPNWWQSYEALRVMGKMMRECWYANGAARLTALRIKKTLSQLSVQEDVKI

O=C(O)[C@@H]1[C@@H](Cn2nnc3ccccc3c2=O)CC[C@H]1C(=O)c1ccc(OCCC2CCOCC2)cc1 [BAY-694]
inactive: residual activity [1] 100% | residual activity [2] 64% | residual activity [3] 100% | residual activity [4] 100% | residual activity [5] 84% | residual activity [6] 98% | residual activity [7] 100% | residual activity [8] 100% | residual activity [9] 91% | residual activity [10] 88% | residual activity [11] 58% | residual activity [12] 94% | residual activity [13] 100% | residual activity [14] 100% | residual activity [15] 89% | residual activity [16] 76% | residual activity [17] 100% | residual activity [18] 78% | residual activity [19] 100% | residual activity [20] 68% | residual activity [21] 98% | residual activity [22] 100% | residual activity [23] 98% | residual activity [24] 93% | residual activity [25] 96% | residual activity [26] 100% | residual activity [27] 100% | residual activity [28] 99% | residual activity [29] 100% | residual activity [30] 88% | residual activity [31] 100% | residual activity [32] 100% | residual activity [33] 90% | residual activity [34] 92% | residual activity [35] 100% | residual activity [36] 100% | residual activity [37] 100% | residual activity [38] 89% | residual activity [39] 100% | residual activity [40] 96% | residual activity [41] 100% | residual activity [42] 100% | inhibition [43] -4.94% | inhibition [44] 4.06% | inhibition [45] 3.39%

O=C(O)[C@H]1[C@H](Cn2nnc3ccccc3c2=O)CC[C@@H]1C(=O)c1ccc(OCCC2CCOCC2)cc1 [BAY-7598]
inactive: residual activity [1] 74% | residual activity [2] 87% | residual activity [3] 100% | residual activity [4] 100% | residual activity [5] 71% | residual activity [6] 100% | residual activity [7] 78% | residual activity [8] 90% | residual activity [9] 100% | residual activity [10] 87% | residual activity [11] 65% | residual activity [12] 77% | residual activity [13] 90% | residual activity [14] 89% | residual activity [15] 100% | residual activity [16] 100% | residual activity [17] 97% | residual activity [18] 61% | residual activity [19] 79% | residual activity [20] 80% | residual activity [21] 69% | residual activity [22] 98% | residual activity [23] 100% | residual activity [24] 96% | residual activity [25] 100% | residual activity [26] 74% | residual activity [27] 77% | residual activity [28] 78% | residual activity [29] 93% | residual activity [30] 74% | residual activity [31] 74% | residual activity [32] 100% | residual activity [33] 97% | residual activity [34] 100% | residual activity [35] 100% | residual activity [36] 84% | residual activity [37] 79% | residual activity [38] 85% | residual activity [39] 100% | residual activity [40] 95% | residual activity [41] 75% | residual activity [42] 73% | inhibition [43] 7.27% | inhibition [44] -2.95% | inhibition [45] 1.99%
